From patent US20070128217A1 (priority 2003, published 2007) come the findings set out here.

Experiment [1] deals with control sera (pooled serum of ten healthy LUMC hospital workers; commercial negative donor pooled serum from the Dutch bloodbank). The format is binding, human. Also noted: Binding of Control serum LUMC to linear peptides / Binding of Control serum Blood-bank to linear peptides / Binding of Control serum LUMC to looped peptides / Binding of Control Serum Blood-Bank to Looped peptides / Binding of Control serum LUMC to linear peptides of the protein M of SARS-CoV Urbani / Binding of Control serum Blood-bank to linear peptides of the protein M of SARS-CoV Urbani / Binding of Control serum LUMC to looped peptides of the protein M of SARS-CoV Urbani / Binding of Control Serum Blood-Bank to Looped peptides of the protein M of SARS-CoV Urbani: unit not given here.

The test system of experiment [2] is rabbit serum obtained by immunizing a rabbit with the SARS-CoV strain Frankfurt 1. The class given is binding. Also on record: Binding of a rabbit serum to linear peptides / Binding of a rabbit serum to looped peptides / Rabbit serum linear peptides / Rabbit serum looped peptides / Binding of a rabbit serum to linear peptides of protein N of SARS-CoV Urbani (Rabbit serum linear peptides) / Binding of a rabbit serum to looped/cyclic peptides of protein N of SARS-CoV Urbani (Rabbit serum looped peptides): unit not given here.

The subject of experiment [3] is antibodies in sera from SARS patients (sera 1a, 1b, 2, 6, 37, 62, London, SARS-yellow, SARS-green). The class given is binding, human. Also noted: Binding of serum 6 to linear peptides of protein X1 of SARS-CoV Urbani / Binding of serum 37 to linear peptides of protein X1 of SARS-CoV Urbani / Binding of serum 6 to looped/cyclic peptide (PEPSCAN-ELISA) / Binding of serum 37 to looped/cyclic peptide (PEPSCAN-ELISA) / Binding of serum 37 to looped/cyclic peptides of protein X1 of SARS-CoV Urbani / Binding of serum 6 to linear peptides of protein X2 / Binding of serum 37 to linear peptides of protein X2 / Binding of serum 37 to looped/cyclic peptides of protein X2 of SARS-CoV Urbani / Binding of serum 6 to linear peptides of protein M of SARS-CoV Urbani / Binding of serum 37 to linear peptides of protein M of SARS-CoV Urbani / Binding of serum 6 to looped/cyclic peptides of protein M of SARS-CoV Urbani / Binding of serum 37 to looped/cyclic peptides of protein M of SARS-CoV Urbani / Binding of serum 6 to linear peptides of protein X3 of SARS-CoV Urbani / Binding of serum 37 to linear peptides of protein X3 of SARS-CoV Urbani / Binding of serum 37 to looped/cyclic peptides of protein X3 of SARS-CoV Urbani / Binding of serum 6 to linear peptides of protein X4 of SARS-CoV Urbani / Binding of serum 37 to linear peptides of protein X4 of SARS-CoV Urbani / Binding of serum 37 to looped/cyclic peptides of protein X4 of SARS-CoV Urbani / Binding of serum 6 to linear peptides of protein X5 of SARS-CoV Urbani / Binding of serum 37 to linear peptides of protein X5 of SARS-CoV Urbani / Binding of serum 37 to looped/cyclic peptides of protein X5 of SARS-CoV Urbani / Binding of serum 6 to linear peptides of protein N of SARS-CoV Urbani / Binding of serum 37 to linear peptides of protein N of SARS-CoV Urbani / Binding of serum 6 to linear peptide (PEPSCAN-ELISA) / Binding of serum 1a to looped/cyclic peptides of protein N of SARS-CoV Urbani / Binding of serum 1b to looped/cyclic peptides of protein N of SARS-CoV Urbani / Binding of serum 2 to looped/cyclic peptides of protein N of SARS-CoV Urbani / Binding of serum 6 to looped/cyclic peptides of protein N of SARS-CoV Urbani / Binding of serum 37 to looped/cyclic peptides of protein N of SARS-CoV Urbani / Binding of serum 62 to looped/cyclic peptides of protein N of SARS-CoV Urbani / Binding of serum London to looped/cyclic peptides of protein N of SARS-CoV Urbani / Binding of serum SARS-green to looped/cyclic peptides of protein N of SARS-CoV Urbani: unit not given here.

In the case of ALQELLIQQWIQFMM, in experiment [1], the “Binding of Control Serum Blood-Bank to Looped peptides” value was 0.7, the “Binding of Control serum Blood-bank to linear peptides” value came to 0.5, the “Binding of Control serum LUMC to linear peptides” value stood at 0.4 and the “Binding of Control serum LUMC to looped peptides” value turned out to be 0.7. For the same sequence, in experiment [2], the “Binding of a rabbit serum to linear peptides” value was determined as 0.2 and the “Binding of a rabbit serum to looped peptides” value is recorded as 0.4. In addition, in experiment [3], the “Binding of serum 1a to linear peptides of protein X2” value was determined as 0.7, the “Binding of serum 1a to looped/cyclic peptides of protein X2 of SARS-CoV Urbani” value is reported as 0.7, the “Binding of serum 1b to linear peptides of protein X2” value was 0.6 and the “Binding of serum 1b to looped/cyclic peptides of protein X2 of SARS-CoV Urbani” value was 0.5. Further, in experiment [3], the “Binding of serum 2 to linear peptides of protein X2” value was 0.4, the “Binding of serum 2 to looped/cyclic peptides of protein X2 of SARS-CoV Urbani” value was 0.4, the “Binding of serum 6 to linear peptides of protein X2” value turned out to be 0.4 and the “Binding of serum 6 to looped/cyclic peptides of protein X2 of SARS-CoV Urbani” value turned out to be 0.2. Besides, in experiment [3], the “Binding of serum 37 to linear peptides of protein X2” value was determined as 0.6, the “Binding of serum 37 to looped/cyclic peptides of protein X2 of SARS-CoV Urbani” value was 0.5, the “Binding of serum 62 to linear peptides of protein X2” value came out at 0.6 and the “Binding of serum 62 to looped/cyclic peptides of protein X2 of SARS-CoV Urbani” value amounted to 0.7. Further, in experiment [3], the “Binding of serum London to linear peptides of protein X2” value was determined as 0.5, the “Binding of serum London to looped/cyclic peptides of protein X2 of SARS-CoV Urbani” value is reported as 0.2, the “Binding of serum SARS-green to linear peptides of protein X2” value was 0.7 and the “Binding of serum SARS-green to looped/cyclic peptides of protein X2 of SARS-CoV Urbani” value is on record as 0.4. In experiment [3], the “Binding of serum SARS-yellow to linear peptides of protein X2” value came to 0.4 and the “Binding of serum SARS-yellow to looped/cyclic peptides of protein X2 of SARS-CoV Urbani” value was 0.5.

For the sequence ALVFLILCFTIKRKT, in experiment [1], the “Binding of Control Serum Blood-Bank to Looped peptides” value was 0.8, the “Binding of Control serum Blood-bank to linear peptides” value was determined as 0.8, the “Binding of Control serum LUMC to linear peptides” value is recorded as 0.6 and the “Binding of Control serum LUMC to looped peptides” value was 0.7. Also, in experiment [2], the “Rabbit serum linear peptides” value was 0.6 and the “Rabbit serum looped peptides” value came out at 0.6. In experiment [3], the “Binding of serum 1a to linear peptides of protein X4 of SARS-CoV Urbani” value came out at 0.7, the “Binding of serum 1a to looped/cyclic peptides of protein X4 of SARS-CoV Urbani” value was 0.8, the “Binding of serum 1b to linear peptides of protein X4 of SARS-CoV Urbani” value is given as 0.6 and the “Binding of serum 1b to looped/cyclic peptides of protein X4 of SARS-CoV Urbani” value is listed as 0.5. In experiment [3], the “Binding of serum 2 to linear peptides of protein X4 of SARS-CoV Urbani” value turned out to be 0.7, the “Binding of serum 2 to looped/cyclic peptides of protein X4 of SARS-CoV Urbani” value is given as 0.8, the “Binding of serum 6 to linear peptides of protein X4 of SARS-CoV Urbani” value stood at 0.7 and the “Binding of serum 6 to looped/cyclic peptides of protein X4 of SARS-CoV Urbani” value is recorded as 0.9. Also, in experiment [3], the “Binding of serum 37 to linear peptides of protein X4 of SARS-CoV Urbani” value is reported as 0.7, the “Binding of serum 37 to looped/cyclic peptides of protein X4 of SARS-CoV Urbani” value worked out at 0.6, the “Binding of serum 62 to linear peptides of protein X4 of SARS-CoV Urbani” value came to 0.8 and the “Binding of serum 62 to looped/cyclic peptides of protein X4 of SARS-CoV Urbani” value came out at 0.7. For the same sequence, in experiment [3], the “Binding of serum London to linear peptides of protein X4 of SARS-CoV Urbani” value stood at 0.8, the “Binding of serum London to looped/cyclic peptides of protein X4 of SARS-CoV Urbani” value came out at 1.1, the “Binding of serum SARS-green to linear peptides of protein X4 of SARS-CoV Urbani” value came out at 0.7 and the “Binding of serum SARS-green to looped/cyclic peptides of protein X4 of SARS-CoV Urbani” value turned out to be 0.5. In experiment [3], the “Binding of serum SARS-yellow to linear peptides of protein X4 of SARS-CoV Urbani” value is 0.4 and the “Binding of serum SARS-yellow to looped/cyclic peptides of protein X4 of SARS-CoV Urbani” value stood at 0.6.

As to AMACIVGLMWLSYFV, in experiment [1], the “Binding of Control Serum Blood-Bank to Looped peptides of the protein M of SARS-CoV Urbani” value was 0.6, the “Binding of Control serum Blood-bank to linear peptides of the protein M of SARS-CoV Urbani” value was found to be 0.6, the “Binding of Control serum LUMC to linear peptides of the protein M of SARS-CoV Urbani” value is 0.3 and the “Binding of Control serum LUMC to looped peptides of the protein M of SARS-CoV Urbani” value stood at 0.7. In addition, in experiment [2], the “Rabbit serum linear peptides” value was determined as 0.4 and the “Rabbit serum looped peptides” value turned out to be 0.1. Further, in experiment [3], the “Binding of serum 1a to linear peptides of protein M of SARS-CoV Urbani” value is on record as 0.7, the “Binding of serum 1a to looped/cyclic peptides of protein M of SARS-CoV Urbani” value was 0.7, the “Binding of serum 1b to linear peptides of protein M of SARS-CoV Urbani” value is given as 0.5 and the “Binding of serum 1b to looped/cyclic peptides of protein M of SARS-CoV Urbani” value was found to be 0.7. Besides, in experiment [3], the “Binding of serum 2 to linear peptides of protein M of SARS-CoV Urbani” value is 0.6, the “Binding of serum 2 to looped/cyclic peptides of protein M of SARS-CoV Urbani” value turned out to be 0.6, the “Binding of serum 6 to linear peptides of protein M of SARS-CoV Urbani” value came out at 0.4 and the “Binding of serum 6 to looped/cyclic peptides of protein M of SARS-CoV Urbani” value was determined as 0.9. In experiment [3], the “Binding of serum 37 to linear peptides of protein M of SARS-CoV Urbani” value was found to be 0.6, the “Binding of serum 37 to looped/cyclic peptides of protein M of SARS-CoV Urbani” value was 0.6, the “Binding of serum 62 to linear peptides of protein M of SARS-CoV Urbani” value is on record as 0.6 and the “Binding of serum 62 to looped/cyclic peptides of protein M of SARS-CoV Urbani” value came out at 0.5. For the same sequence, in experiment [3], the “Binding of serum London to linear peptides of protein M of SARS-CoV Urbani” value turned out to be 0.4, the “Binding of serum London to looped/cyclic peptides of protein M of SARS-CoV Urbani” value is 0.2, the “Binding of serum SARS-green to linear peptides of protein M of SARS-CoV Urbani” value was found to be 0.2 and the “Binding of serum SARS-green to looped/cyclic peptides of protein M of SARS-CoV Urbani” value is 0.4. Besides, in experiment [3], the “Binding of serum SARS-yellow to linear peptides of protein M of SARS-CoV Urbani” value stood at 0.1 and the “Binding of serum SARS-yellow to looped/cyclic peptides of protein M of SARS-CoV Urbani” value amounted to 0.6.

Turning to AQFLYLYALIYFLQC, in experiment [1], the “Binding of Control Serum Blood-Bank to Looped peptides” value came out at 0.4, the “Binding of Control serum Blood-bank to linear peptides” value came out at 0.4, the “Binding of Control serum LUMC to linear peptides” value was found to be 0.5 and the “Binding of Control serum LUMC to looped peptides” value stood at 0.5. In experiment [2], the “Binding of a rabbit serum to linear peptides” value was found to be 0.2 and the “Binding of a rabbit serum to looped peptides” value is 0.5. In experiment [3], the “Binding of serum 1a to linear peptides of protein X1 of SARS-CoV Urbani” value came to 0.6, the “Binding of serum 1a to looped/cyclic peptide (PEPSCAN-ELISA)” value is on record as 0.5, the “Binding of serum 1b to linear peptides of protein X1 of SARS-CoV Urbani” value came to 0.5 and the “Binding of serum 1b to looped/cyclic peptide (PEPSCAN-ELISA)” value was 0.3. In experiment [3], the “Binding of serum 2 to linear peptides of protein X1 of SARS-CoV Urbani” value amounted to 0.5, the “Binding of serum 2 to looped/cyclic peptide (PEPSCAN-ELISA)” value is reported as 0.4, the “Binding of serum 6 to linear peptides of protein X1 of SARS-CoV Urbani” value is listed as 0.3 and the “Binding of serum 6 to looped/cyclic peptide (PEPSCAN-ELISA)” value was found to be 0.2. Moreover, in experiment [3], the “Binding of serum 37 to linear peptides of protein X1 of SARS-CoV Urbani” value is 0.6, the “Binding of serum 37 to looped/cyclic peptide (PEPSCAN-ELISA)” value was determined as 0.4, the “Binding of serum 62 to linear peptides of protein X1 of SARS-CoV Urbani” value is recorded as 0.4 and the “Binding of serum 62 to looped/cyclic peptide (PEPSCAN-ELISA)” value worked out at 0.5. In experiment [3], the “Binding of serum London to linear peptides of protein X1 of SARS-CoV Urbani” value was 0.2, the “Binding of serum London to looped/cyclic peptide (PEPSCAN-ELISA)” value was determined as 0.2, the “Binding of serum SARS-green to linear peptides of protein X1 of SARS-CoV Urbani” value came to 0.2 and the “Binding of serum SARS-green to looped/cyclic peptide (PEPSCAN-ELISA)” value came to 0.3. For the same sequence, in experiment [3], the “Binding of serum SARS-yellow to linear peptides of protein X1 of SARS-CoV Urbani” value amounted to 0.4 and the “Binding of serum SARS-yellow to looped/cyclic peptide (PEPSCAN-ELISA)” value is recorded as 0.3.
